As a reminder, the IC50 is the concentration that inhibits the measured activity by half.

The experiment addresses Tyrosine-protein kinase BTK (Homo sapiens, UniProt Q06187). Put plainly: HTRF Assay: The enzyme reaction mixture of BTK wild type standard HTRF assay contained 1 nM BTK wild type, 1 μM biotin-TK1 peptide, and 30 μM ATP in a buffer. The enzyme reaction were carried out at room temperature for 60 minutes. 5 μl of 0.2 M EDTA were added to quench the reaction and then […] were added at final concentrations of 2 nM antibody and 62.5 nM XL665. The plates were incubated at room temperature for 60 minutes and then read in the Envision plate reader. For orientation: Time-resolved FRET reads energy transfer from a long-lived donor to a nearby acceptor.

Tyrosine-protein kinase BTK, sequence (Q06187 whole entry): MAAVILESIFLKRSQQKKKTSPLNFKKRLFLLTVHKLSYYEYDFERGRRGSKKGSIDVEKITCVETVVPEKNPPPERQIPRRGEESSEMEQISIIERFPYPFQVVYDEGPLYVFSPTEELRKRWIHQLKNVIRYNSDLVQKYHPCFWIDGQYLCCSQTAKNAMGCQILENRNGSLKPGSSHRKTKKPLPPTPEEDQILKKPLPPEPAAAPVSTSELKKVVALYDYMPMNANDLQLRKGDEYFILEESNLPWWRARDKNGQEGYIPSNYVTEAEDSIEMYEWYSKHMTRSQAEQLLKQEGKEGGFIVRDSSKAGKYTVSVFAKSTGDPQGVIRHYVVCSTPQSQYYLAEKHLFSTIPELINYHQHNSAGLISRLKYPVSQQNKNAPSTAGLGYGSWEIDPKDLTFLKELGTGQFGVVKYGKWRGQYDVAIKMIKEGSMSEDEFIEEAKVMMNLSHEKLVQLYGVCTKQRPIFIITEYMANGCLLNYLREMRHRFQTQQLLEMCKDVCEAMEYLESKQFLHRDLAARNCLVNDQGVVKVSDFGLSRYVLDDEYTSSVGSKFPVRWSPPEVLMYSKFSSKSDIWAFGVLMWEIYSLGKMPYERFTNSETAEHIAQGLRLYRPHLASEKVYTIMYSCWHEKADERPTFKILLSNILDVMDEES

On to `Nc1ncnc2c1c(-c1ccc(Oc3c(F)c(F)cc(F)c3F)cc1F)nn2C1CCC(NC(=O)CSSCC(=O)NC2CCC(n3nc(-c4ccc(Oc5c(F)c(F)cc(F)c5F)cc4F)c4c(N)ncnc43)CC2)CC1` (stereo unspecified), for which the half-maximal inhibitory concentration (IC50) came out at 22 nM.

For the origin of these results see ChEMBL document CHEMBL5725286, “Polyfluorinated compounds acting as bruton tyrosine kinase inhibitors” (2017).
